Marks after values point to notes of the source that are not given here.
Legend:
[1] = Kinetics of IChU reactions with reference electrophile (ind)2CH+ (stopped-flow photometry); assay type: physicochemical; details: E = −8.76, dichloromethane, 20 °C
Source text: (§1) In order to systematically investigate the influence of the chalcogen atom on the nucleophilicity of DHPB‐derived IChUs (Ch = O, S, Se, and Te), we utilized Mayr's benzhydrylium methodology.^[ [107] ^]
(§2) In accordance with observations in previous studies on ITU reactivity,^[ [119] ^] mixing the strongly colored benzhydrylium tetrafluoroborates 18 with excess IChUs in dichloromethane gave rise to decolorization of the solutions due to the formation of isochalcogenouronium tetrafluoroborates 19, which are colourless (Figure 3a). Owing to reversibility of the C─N bond formation, generated adducts 19 from the IChU/benzhydrylium reactions were not isolated but characterized by ^1H, ^13C, and ^77Se NMR spectroscopy (the ^77Se nucleus is remarkably sensitive with observed changes of around 100 ppm when comparing the ^77Se resonances of free ISeUs with those of the corresponding selenouronium tetrafluoroborates^[ [95] ^]). The kinetics of the IChU reactions with the reference electrophiles 18 were traced by photometric methods using standard stopped‐flow techniques. To establish pseudo first‐order conditions and to secure a sufficient decay of the benzhydrylium's absorbance during the course of the reactions, the IChUs were employed at higher concentrations than the benzhydrylium ions. First‐order rate constants k obs (s^−1) were determined by fitting the mono‐exponential decay function in Equation (2) to the decreasing absorbance (A) of 18 during their reaction with the IChUs as exemplified for the reaction of ITeU3 with (ind)2CH^+ in Figure 3b. (2) A=A0e^−kobst+C […]
(§3) First‐order rate constants k obs correlated linearly with the IChU concentration. Therefore, second‐order rate constants k 2 (L mol^−1 s^−1) were determined from the slope of the linear regression curves (Figure 3c ^[ [95] ^]). Second‐order rate constants k 2 for all kinetically investigated reactions of DHPB‐derived IChUs (Ch = O, S, Se, and Te) with benzhydrylium ions 18 are gathered in Table 1.
(§4) Apart from CH2Cl2 also MeCN and THF are solvents that are commonly employed in reactions involving isochalcogenoureas. […]

[2] = Kinetics of IChU reactions with reference electrophile (pyr)2CH+ (stopped-flow photometry); assay type: physicochemical; details: E = −7.69, dichloromethane, 20 °C
Source text: as §1, §2, §3, §4

[3] = Kinetics of IChU reactions with reference electrophile (dma)2CH+ (stopped-flow photometry); assay type: physicochemical; details: E = −7.02, dichloromethane, 20 °C
Source text: as §1, §2, §3, §4

[4] = Brønsted basicity pKaH by chemical shift imaging NMR method in DMSO and MeCN; details: for Brønsted basicity pKaH(DMSO): in DMSO; for Brønsted basicity pKaH(MeCN): in MeCN
Protocol: Recently, Wiskur's group reported potentiometrically determined pK aH values (that is, the pK a of the conjugate acids) of achiral ITUs based on the BTM and DHPB scaffolds in aqueous media.^[ [89], [128] ^] […] In this work, we applied this NMR spectroscopic method to determine the pK aH values of further IChUs in DMSO and MeCN (Supporting Information).
First, a stock solution containing the analyte, two basic indicators and tetramethyl silane was prepared with the respective solvent (DMSO or acetonitrile).
Then 5-10 mg of acid were weighed into a NMR tube and subsequently covered with glass beads.
Figure S50: 5-10 mg of acid in Figure S51: Cover with 1 mm
Afterwards, 550 μL of the stock solution was layered carefully over the glass beads and the acid. The sample is then put in a 28 °C water bath (for DMSO) for 20 - 24h or left on the bench at 22 °C (for acetonitrile) for 1.5 - 2 h and then the NMR measurement was carried out at 20 °C.
Figure S52: Overlay the acid with the Figure S54: Visualized gradient after stock solution of two indicators and the 18h in DMSO (with Bromthymolblue) […]
Figure S53: Development of gradients in temperated water S145 […]
13.4 Indicator and Acid Data
Table S67: Limiting shifts (δH for the fully protonated and δL for the free base), pKas and abbreviations of indicators and acids in acetonitrile.
Table S68: Limiting shifts (δH for the fully protonated and δL for the free base), pKas and abbreviations of indicators

[5] = Lewis basicity LB from equilibrium constants (photometric titrations) with benzhydrylium ions as reference Lewis acids; assay type: physicochemical; set-up: key: Mayr Lewis basicity scale; LB from K and reference LA via Eq. (3); details: in dichloromethane, 20 °C
Protocol: (a) Lewis basicity. Previously, the Mayr group established a series of benzhydrylium ions as C‐centered Lewis acid references to construct a Lewis basicity scale in dichloromethane. Substituting experimentally determined equilibrium constants K (at 20 °C) and reported Lewis acidities LA for the benzhydrylium ions (Figure 7) in Equation (3) enables one to calculate the Lewis basicity (LB) of a Lewis base.^[ [121], [127] ^] (3) lgK(20^∘C)=LA+LB
The reversibility of the formation of adducts 19 (Equation (4)), which was also apparent in the kinetics by significant positive intercepts in several of the k obs versus [IChU] plots (Supporting Information), provided the opportunity to probe the thermodynamics of the C‐N bond‐forming reactions of IChUs with benzhydrylium ions as the reference Lewis acids in more detail.^[ [95] ^] (4) IChU+Ar2CH^+(18)⇌Ar2CH-IChU^+(19)
By assuming the validity of the Beer–Lambert law for dilute solutions, equilibrium constants K (L mol^−1) were determined in photometric titrations according to Equation (5) from the initial absorbance (A 0) of the benzhydrylium ions 18 and the absorbance at equilibrium (A, Equation 5), that is, after addition of a certain amount of an IChU.^[ [109], [110], [111], [112], [113], [114], [115], [119] ^] (5) K=[19]/[18]IChU=A0−A/AIChU

[6] = in methanolic aqueous solution (1:5-mixture); cited from earlier work

| SMILES | Second-order rate constant k2 exptl [1] [M⁻¹ s⁻¹] | Second-order rate constant k2 exptl [2] [M⁻¹ s⁻¹] | Second-order rate constant k2 exptl [3] [M⁻¹ s⁻¹] | Brønsted basicity pKaH(DMSO) [4] | Brønsted basicity pKaH(MeCN) [4] | Lewis basicity LB [5] | Brønsted basicity pKaH(H2O) [6] |
| --- | --- | --- | --- | --- | --- | --- | --- |
| c1ccc2c(c1)OC1=NCCCN12 [IU3, ODHPB] | 1200 | 7930 | 27900 | 6.5 | 16.9 | 13.66 | 8.8 ^c) |
| c1ccc2c(c1)[Se]C1=NCCCN12 [ISeU3, SeDHPB] | 18100 | 107000 | 194000 | 8.3 | 17.9 | 15.54 | >11 ^c) |
